Holding throughout (assay): DTP human tumour cell line panel, 48 h
In experiment [1] the test system is M14.
The test system of experiment [2] is UO-31.
Experiment [3] relates to SF-268.
For experiment [4], the system named is SK-MEL-5.
For experiment [5], the system named is UACC-62.
The test system of experiment [6] is TK-10.
In experiment [7] the test system is OVCAR-5.
Experiment [8] has as its system Malme-3M.
Experiment [9] relates to UACC-257.
Experiment [10] relates to Hs-578T.
Experiment [11] relates to MDA-MB-435.
The subject of experiment [12] is CCRF-CEM.
Experiment [13] relates to HCT-116.
In experiment [14] the test system is SF-295.
Experiment [15] deals with SF-539.
Experiment [16] deals with DU-145.
In experiment [17] the test system is MDA-MB-231.
Experiment [18] relates to K562.

The values below come from ChEMBL document CHEMBL1201862, “PubChem BioAssay data set” (2004).

The structures appear in SMILES notation.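 Test compounds were applied to cells in 96-well plates for 48 hours at 5 doses. GI50 marks 50% less growth.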 Active and inactive are the calls of the source. Rule as the data show it: active = GI50 up to about 1.1 µM and inactive = higher.

Regarding `O=C(O)c1ccc(C(=O)c2ccccc2)c(C(=O)O)c1`, the GI50 in experiment [1], in experiment [2], in experiment [3], in experiment [4], in experiment [5] and in experiment [6] was > 100 µM (inactive) in each case. In addition, the GI50 in [7], in [8], in [9], in experiment [10], in experiment [11] and in experiment [12] was > 100 µM (inactive) each time. In addition, the GI50 in experiment [13], in [14], in experiment [15], in experiment [16], in [17] and in experiment [18] was > 100 µM (inactive) in each case.

Consider `CC(C)(C)OC(=O)n1cc(C2CNC(=O)C23CCC(=O)N3Cc2ccccc2)c2ccccc21` (stereo not drawn), for which the GI50 – broadly, the concentration that inhibits growth by half – in experiment [1] was 27.4 µM (inactive); in [2], 22.1 µM (inactive); in experiment [3], 31.6 µM (inactive); in [4], 16.9 µM (inactive); in experiment [5], 17.5 µM (inactive); in experiment [6], 17.1 µM (inactive). For the same compound, the GI50 in experiment [7] is 19.5 µM (inactive); in experiment [8], 21.9 µM (inactive); in [9], 27 µM (inactive); in experiment [10] it was 29.9 µM (inactive); in [11] it was 20 µM (inactive); in experiment [12], 25.9 µM (inactive). The GI50 in experiment [13] was 32.7 µM (inactive); in experiment [14] it was 17.7 µM (inactive); in experiment [15], 19.4 µM (inactive); in [16], 20.4 µM (inactive); in experiment [17], 16.8 µM (inactive); in [18] it was 41.1 µM (inactive).

Consider `O=C1C([P+](c2ccccc2)(c2ccccc2)c2ccccc2)=C([O-])C(=Cc2ccc(Cl)c(Cl)c2)C([O-])=C1[P+](c1ccccc1)(c1ccccc1)c1ccccc1`, for which the GI50 in experiment [1] is 2.38 µM (inactive); in experiment [2], 3.75 µM (inactive); in experiment [3] it was 1.72 µM (inactive); in experiment [4], 2.34 µM (inactive); in experiment [5], 2.23 µM (inactive); in experiment [6], 2.71 µM (inactive). The GI50 in experiment [7] was 3.56 µM (inactive); in [8], 2.34 µM (inactive); in experiment [9] it was 2.43 µM (inactive); in experiment [10], 4.02 µM (inactive); in experiment [11] it was 2.3 µM (inactive); in [12], 0.465 µM (active). The GI50 in experiment [13] is 1.68 µM (inactive); in experiment [14], 2.65 µM (inactive); in experiment [15], 2.55 µM (inactive); in [16] it was 7.67 µM (inactive); in experiment [17], 2.96 µM (inactive); in [18], 1.6 µM (inactive).

As to `COC(=O)NNC(=O)OC.COC(=O)Nc1ccccc1NC(=O)OC.COC(=O)Oc1nn(C(=O)OC)c(=O)c2ccccc12`, the GI50 in [1], in experiment [2], in [3], in [4], in experiment [5] and in experiment [6] was > 100 µM (inactive) in each case. Further, the GI50 in experiment [7], in [8], in experiment [9], in experiment [10], in experiment [11] and in experiment [12] was > 100 µM (inactive) in each case. For the same compound, the GI50 in [13], in [14], in experiment [15], in [16], in [17] and in experiment [18] was > 100 µM (inactive) throughout.

Take `CSc1s[s+]c(SC)c1-c1ccccc1`: the GI50 in experiment [1] was 16.5 µM (inactive); in [2] it was 18.4 µM (inactive); in [3], 18.2 µM (inactive); in experiment [4], 15.7 µM (inactive); in [5] it was 13.4 µM (inactive); in experiment [6] it was 15.5 µM (inactive). Further, the GI50 in experiment [7] was 15.8 µM (inactive); in [8], 11.3 µM (inactive); in experiment [9], 14.4 µM (inactive); in experiment [10], 25.4 µM (inactive); in [11] it was 18.9 µM (inactive); in experiment [12], 25.2 µM (inactive). Also, the GI50 is 15.4 µM (inactive) in [13]; 17.6 µM (inactive) in [14]; 18.2 µM (inactive) in experiment [15]; 70.1 µM (inactive) in experiment [16]; 12.2 µM (inactive) in experiment [17]; 20.2 µM (inactive) in experiment [18].

`Cc1ccc(-c2nc(N/N=C/C=C/c3ccccc3)c3ccccc3n2)cc1`: the GI50 is 29.4 µM (inactive) in experiment [1]; 83.6 µM (inactive) in experiment [2]; 33.5 µM (inactive) in experiment [3]; 14.8 µM (inactive) in experiment [4]; 17.1 µM (inactive) in [5]; 20 µM (inactive) in experiment [6]. Moreover, the GI50 is 17.4 µM (inactive) in experiment [7]; 30 µM (inactive) in [8]; 34 µM (inactive) in [9]; > 100 µM (inactive) in experiment [10]; 52 µM (inactive) in experiment [11]; > 100 µM (inactive) in experiment [12]. Also, the GI50 in [13] was 26.6 µM (inactive); in [14], 23.2 µM (inactive); in [15] it was 55.5 µM (inactive); in experiment [16], 25.9 µM (inactive); in [17], 16.6 µM (inactive); in [18] it was > 100 µM (inactive).

For `CN(/N=C/c1ccnc2ccccc12)c1ccc(Cl)cc1[N+](=O)[O-]`, the GI50 in [1] is > 100 µM (inactive); in experiment [2], > 100 µM (inactive); in experiment [3] it was 80 µM (inactive); in experiment [4], 6.12 µM (inactive); in experiment [5], > 100 µM (inactive); in experiment [6], 35.6 µM (inactive). Besides, the GI50 is > 100 µM (inactive) in [7]; 70.3 µM (inactive) in experiment [8]; 9.59 µM (inactive) in experiment [9]; 12.5 µM (inactive) in experiment [10]; > 100 µM (inactive) in experiment [11]; 50 µM (inactive) in experiment [12]. For the same compound, the GI50 in experiment [13] is > 100 µM (inactive); in experiment [14], 15.1 µM (inactive); in experiment [15], 24.4 µM (inactive); in [16] it was > 100 µM (inactive); in experiment [17], > 100 µM (inactive); in experiment [18] it was > 100 µM (inactive).

With `C/C(=N\NC(=S)Nc1ccc([N+](=O)[O-])cc1)c1nc2cccnc2[nH]1`, the GI50 in experiment [1] was 1.26 µM (inactive); in experiment [2], 0.322 µM (active); in experiment [3] it was 0.278 µM (active); in [4] it was 0.991 µM (active); in experiment [5], 0.447 µM (active); in [6], 0.327 µM (active). Besides, the GI50 in experiment [7] was 1.08 µM (active); in [8], 1.36 µM (inactive); in experiment [9] it was 0.565 µM (active); in experiment [10], 1.27 µM (inactive); in experiment [11], 1.34 µM (inactive); in [12], 0.381 µM (active). The GI50 in [13] was 0.515 µM (active); in [14], 0.352 µM (active); in experiment [15] it was 0.288 µM (active); in experiment [16] it was 1.21 µM (inactive); in experiment [17], 1.31 µM (inactive); in experiment [18] it was 1.55 µM (inactive).

Turning to `N#CC(C#N)=C1CCCCc2ccc([N+](=O)[O-])cc21`, the GI50 in experiment [1] is > 100 µM (inactive); in experiment [2], 92.9 µM (inactive); in experiment [3], > 100 µM (inactive); in [4] it was > 100 µM (inactive); in [5], > 100 µM (inactive); in [6], > 100 µM (inactive). Besides, the GI50 in experiment [7] is > 100 µM (inactive); in experiment [8], > 100 µM (inactive); in experiment [9], > 100 µM (inactive); in experiment [10], > 100 µM (inactive); in [11] it was > 100 µM (inactive); in [12], 40.5 µM (inactive). The GI50 in experiment [13] is 24.3 µM (inactive); in experiment [14] it was > 100 µM (inactive); in experiment [15], > 100 µM (inactive); in experiment [16] it was > 100 µM (inactive); in [17] it was > 100 µM (inactive); in experiment [18] it was 39.4 µM (inactive).

In the case of `CC(C)(C)OC(=O)N/C(C=O)=C\C1CCCCC1`, the GI50 was 16.2 µM (inactive) in experiment [1]; 16.5 µM (inactive) in [2]; 17.4 µM (inactive) in experiment [3]; 15.3 µM (inactive) in experiment [4]; 15.6 µM (inactive) in experiment [5]; 17.7 µM (inactive) in experiment [6]. Moreover, the GI50 in experiment [7] was 19.8 µM (inactive); in experiment [8], 25.8 µM (inactive); in experiment [9], 20.4 µM (inactive); in experiment [10] it was 27.3 µM (inactive); in experiment [11] it was 20 µM (inactive); in experiment [12], 29.6 µM (inactive). For the same compound, the GI50 is 16.3 µM (inactive) in experiment [13]; 29.8 µM (inactive) in experiment [14]; 28.4 µM (inactive) in experiment [15]; 29 µM (inactive) in experiment [16]; 19.5 µM (inactive) in experiment [17]; 22.6 µM (inactive) in experiment [18].

As for `N#CCCC(CC#N)N1CCN(CCO)CC1` (stereo not drawn), the GI50 in experiment [1], in experiment [2], in [3], in experiment [4], in experiment [5] and in [6] was > 100 µM (inactive) throughout. In addition, the GI50 in [7] was > 100 µM (inactive); in experiment [8] it was > 100 µM (inactive); in experiment [9], > 100 µM (inactive); in [10] it was 61.4 µM (inactive); in experiment [11], > 100 µM (inactive); in experiment [12], > 100 µM (inactive). In addition, the GI50 in experiment [13], in experiment [14], in experiment [15], in experiment [16], in experiment [17] and in experiment [18] was > 100 µM (inactive) in each case.
